≈ marks a conversion by molar mass, not a printed value. Read-outs that look alike come from different tables or passages of the source.

One experiment has as its system Haemophilus influenzae. Put plainly: Broth microdilution MIC against Haemophilus influenzae clinical isolates. The note with it: for MIC: all evaluated H. influenzae strains, incl. BLNAR, range tested 64-0.06; for MIC50 / MIC90: Haemophilus influenzae.
In another experiment the test system is S. pneumoniae. Kind of experiment: Broth microdilution MIC (Example 11). The note with it: Streptococcus pneumoniae. For orientation: In broth dilution the organism is exposed to a series of concentrations in liquid medium.
Another experiment relates to S. agalactiae. Kind of experiment: Broth microdilution MIC (Example 11). The note with it: Streptococcus agalactiae.
A further experiment deals with E. faecalis. Kind of experiment: Broth microdilution MIC (Example 11). The note with it: Enterococcus faecalis, VRE, VRE Lev^R Cip^R Ery^R.
Another experiment deals with S. pyogenes. Kind of experiment: Broth microdilution MIC (Example 11). The note with it: Streptococcus pyogenes.
For experiment [1], the system named is Staphylococcus aureus (MRSA). Kind of experiment: Broth microdilution MIC (Example 11).
The subject of experiment [2] is B. cepacia. Put plainly: FIC checkerboard assay. The experiment is classed as cell-based. To be noted: during FIC testing.
The subject of experiment [3] is B. cenocepacia. Put plainly: Broth microdilution MIC (Example 10). The note with it: initial MIC testing; B. cenocepacia isolate 0548 (CIP-R).
Experiment [4] relates to B. cenocepacia. Put plainly: FIC checkerboard assay. It is filed as cell-based. The note with it: during FIC testing; B. cenocepacia isolate 0813 (CIP-I).
The subject of another experiment is Acinetobacter baumannii. Kind of experiment: Broth microdilution MIC (Example 12).
Experiment [5] deals with B. cepacia. Put plainly: Broth microdilution MIC (Example 10). To be noted: initial MIC testing.
For another experiment, the system named is Escherichia coli. Put plainly: Broth microdilution MIC (Example 12).
A further experiment relates to Klebsiella pneumoniae. Kind of experiment: Broth microdilution MIC (Example 12).
The subject of the next experiment is Pseudomonas aeruginosa. Put plainly: Broth microdilution MIC (Example 12).
In a further experiment the test system is Neisseria gonorrhoeae. Put plainly: Agar dilution MIC (Example 11). To be noted: read-out: MIC. It is filed as cell-based. A general note: In agar dilution the substance is mixed into plates at graded concentrations.

As for “bismuth-2,3-butanedithiol, 2-mercaptopyridine N-oxide [BisBDT/PYR]”, the MIC against Haemophilus influenzae is less than 0.06 µg/mL.

For `CC[C@H]1OC(=O)[C@H](C)[C@@H](O[C@H]2C[C@@](C)(OC)[C@@H](O)[C@H](C)O2)[C@H](C)[C@@H](O[C@@H]2O[C@H](C)C[C@H](N(C)C)[C@H]2O)[C@](C)(O)C[C@@H](C)C(=O)[C@H](C)[C@@H](O)[C@]1(C)O` [Erythromycin], the MIC against S. pneumoniae (ATCC49619, S. pneumoniae MMX 6837 (ATCC 49619), QC) was 0.03 µg/mL (≈ 0.0409 µM); against S. pneumoniae (S. pneumoniae MMX 880, Lev^R SXT^R CC^R Ery^R Pen^R), greater than 8 µg/mL; in the experiment on S. pneumoniae (S. pneumoniae MMX 937, Mem^R SXT^R CC^R Ery^R Pen^R), greater than 8 µg/mL; against S. pneumoniae (S. pneumoniae MMX 3959, CC^R Ery^R), greater than 8 µg/mL; against S. pneumoniae (S. pneumoniae MMX 5440, Mem^R SXT^R CC^R Ery^R Pen^R), greater than 8 µg/mL; against S. pneumoniae (S. pneumoniae MMX 5445, Mem^R SXT^R CC^R Ery^R Pen^R), greater than 8 µg/mL. Moreover, the MIC is greater than 8 µg/mL in the experiment with S. pneumoniae (S. pneumoniae MMX 8133, Mem^R SXT^R CC^R Ery^R Pen^R); 8 µg/mL (≈ 10.9 µM) against S. agalactiae (S. agalactiae MMX 3741, ERY^R CC^R); greater than 8 µg/mL against S. agalactiae (S. agalactiae MMX 3743, ERY^R CC^R); greater than 8 µg/mL with S. agalactiae (S. agalactiae MMX 4077, ERY^R CC^R); greater than 8 µg/mL in the experiment with S. agalactiae (S. agalactiae MMX 4079, ERY^R CC^R Pen^R MEM^R); greater than 8 µg/mL against S. agalactiae (S. agalactiae MMX 4086, ERY^R CC^R). The MIC against E. faecalis (E. faecalis MMX 8960) is greater than 64 µg/mL; in the experiment with E. faecalis (E. faecalis MMX 8961), greater than 64 µg/mL; with E. faecalis (E. faecalis MMX 8962) it was greater than 64 µg/mL; against S. pyogenes (S. pyogenes MMX 3068, Ery^R) it was greater than 8 µg/mL; against S. pyogenes (S. pyogenes MMX 3820, ERY^R CLI^R) it was greater than 8 µg/mL; in the experiment with S. pyogenes (S. pyogenes MMX 3919, ERY^R), greater than 8 µg/mL. The MIC with S. pyogenes (S. pyogenes MMX 3929, ERY^R CC^R) is greater than 8 µg/mL; against S. pyogenes (S. pyogenes MMX 5091, ERY^R CC^R), greater than 8 µg/mL; in [1] (ATCC29213|MRSA|MSSA, S. aureus MMX 101 (ATCC 29213), QC, MSSA) it was 0.5 µg/mL (≈ 0.681 µM); in experiment [1] (MRSA, S. aureus MMX 5373, MRSA Lev^R Cip^R CC^R Ery^R Ox^R), greater than 64 µg/mL; in experiment [1] (MRSA, S. aureus MMX 6311, MRSA Lev^R Cip^R CC^R Ery^R Ox^R) it was greater than 64 µg/mL; in experiment [1] (MRSA, S. aureus MMX 9203, MRSA Lev^R Cip^R Ery^R Ox^R) it was greater than 64 µg/mL. Further, the MIC in experiment [1] (MRSA, S. aureus MMX 9204, MRSA Lev^R Cip^R Ery^R Ox^R) is greater than 64 µg/mL; in experiment [1] (MRSA, S. aureus MMX 9205, MRSA Lev^R Cip^R CC^R Ery^R Ox^R) it was greater than 64 µg/mL.

Regarding `C[C@H]1[C@H](NC(=O)/C(=N\OC(C)(C)C(=O)O)c2csc(N)n2)C(=O)N1S(=O)(=O)O` [AZT], the values for the MIC in the experiment with B. cepacia [2] (B. cepacia isolate 0546), in the experiment with B. cenocepacia [3] and in the experiment on B. cenocepacia [4] were 32 µg/mL, 64 µg/mL (≈ 147 µM) and 32 µg/mL, respectively.

Regarding `NCC[C@H](O)C(=O)N[C@@H]1C[C@H](N)[C@@H](O[C@H]2O[C@H](CN)[C@@H](O)[C@H](O)[C@H]2O)[C@H](O)[C@H]1O[C@H]1O[C@H](CO)[C@@H](O)[C@H](N)[C@H]1O` [AMK], the MIC is 64 µg/mL in the experiment on B. cepacia [2] (B. cepacia isolate 0546); 32 µg/mL with B. cepacia [2] (B. cepacia isolate 1793); greater than 64 µg/mL against Acinetobacter baumannii (A. baumannii CDC 273, ESBL/OXA); 16 µg/mL (≈ 27.3 µM) with Acinetobacter baumannii (A. baumannii CDC 274, ESBL/OXA); greater than 64 µg/mL in the experiment on Acinetobacter baumannii (A. baumannii CDC 275, ESBL/OXA); 16 µg/mL (≈ 27.3 µM) in the experiment with Acinetobacter baumannii (A. baumannii CDC 277, ESBL/OXA). In addition, the MIC against Acinetobacter baumannii (A. baumannii CDC 284, ESBL/OXA) was 32 µg/mL (≈ 54.6 µM); against Acinetobacter baumannii (A. baumannii CDC 307, OXA) it was greater than 64 µg/mL; against Acinetobacter baumannii (A. baumannii CDC 308, ESBL/OXA) it was greater than 64 µg/mL; against Acinetobacter baumannii (A. baumannii CDC 311, OXA), greater than 64 µg/mL; against Acinetobacter baumannii (A. baumannii CDC 312, OXA), 1 µg/mL (≈ 1.71 µM); with Acinetobacter baumannii (A. baumannii CDC 313, ESBL/OXA), 4 µg/mL (≈ 6.83 µM). Also, the MIC turned out to be 0.5 µg/mL (≈ 0.854 µM) against Acinetobacter baumannii (A. baumannii NCTC 13304, OXA); 64 µg/mL (≈ 109 µM) in the experiment on B. cepacia [5] (B. cepacia isolate 0546); 64 µg/mL (≈ 109 µM) in the experiment on B. cepacia [5] (B. cepacia isolate 1793); 1 µg/mL (≈ 1.71 µM) against Escherichia coli (E. coli ATCC 35218, ESBL); 1 µg/mL (≈ 1.71 µM) against Escherichia coli (E. coli ATCC 35218, QC organism (Table 102)); 64 µg/mL (≈ 109 µM) with Escherichia coli (E. coli ATCC BAA-2471, NDM). Moreover, the MIC against Escherichia coli (E. coli CDC 114, ESBL/KPC) was 1 µg/mL (≈ 1.71 µM); against Escherichia coli (E. coli CDC 118, ESBL/NDM), greater than 64 µg/mL; in the experiment with Escherichia coli (E. coli CDC 435, NDM), greater than 64 µg/mL; against Escherichia coli (E. coli CDC 451, KPC), 4 µg/mL (≈ 6.83 µM); with Escherichia coli (E. coli CDC 503, ESBL/NDM) it was greater than 64 µg/mL; against Escherichia coli (E. coli MMX 5745, KPC), 0.5 µg/mL (≈ 0.854 µM). The MIC against Escherichia coli (E. coli MMX 5755, ESBL) stood at 16 µg/mL (≈ 27.3 µM); in the experiment on Escherichia coli (E. coli MMX 5756, ESBL), 64 µg/mL (≈ 109 µM); against Escherichia coli (E. coli MMX 5758, ESBL), 1 µg/mL (≈ 1.71 µM); in the experiment on Klebsiella pneumoniae (K. pneumoniae ATCC BAA-1705, ESBL/KPC) it was 16 µg/mL (≈ 27.3 µM); in the experiment with Klebsiella pneumoniae (K. pneumoniae ATCC BAA-1705, QC organism (Table 102)), 16 µg/mL (≈ 27.3 µM); against Klebsiella pneumoniae (K. pneumoniae CDC 112, KPC) it was 16 µg/mL (≈ 27.3 µM). Also, the MIC in the experiment with Klebsiella pneumoniae (K. pneumoniae CDC 113, ESBL/KPC) amounted to 16 µg/mL (≈ 27.3 µM); against Klebsiella pneumoniae (K. pneumoniae CDC 115, ESBL/KPC), 0.5 µg/mL (≈ 0.854 µM); against Klebsiella pneumoniae (K. pneumoniae CDC 120, ESBL/KPC), 16 µg/mL (≈ 27.3 µM); in the experiment with Klebsiella pneumoniae (K. pneumoniae CDC 126, ESBL/KPC) it was 2 µg/mL (≈ 3.42 µM); in the experiment on Klebsiella pneumoniae (K. pneumoniae CDC 129, ESBL/KPC), 32 µg/mL (≈ 54.6 µM); against Klebsiella pneumoniae (K. pneumoniae CDC 135, ESBL/VIM), 16 µg/mL (≈ 27.3 µM). The MIC is greater than 64 µg/mL in the experiment on Klebsiella pneumoniae (K. pneumoniae CDC 138, ESBL/NDM); 2 µg/mL (≈ 3.42 µM) against Klebsiella pneumoniae (K. pneumoniae CDC 158, ESBL/NDM/OXA); 0.5 µg/mL (≈ 0.854 µM) in the experiment on Klebsiella pneumoniae (K. pneumoniae MMX 9029, ESBL); greater than 64 µg/mL against Pseudomonas aeruginosa (P. aeruginosa CDC 230, VIM/OXA); 8 µg/mL (≈ 13.7 µM) with Pseudomonas aeruginosa (P. aeruginosa CDC 231, KPC/OXA); 32 µg/mL (≈ 54.6 µM) in the experiment with Pseudomonas aeruginosa (P. aeruginosa CDC 241, IMP/OXA). The MIC is greater than 64 µg/mL against Pseudomonas aeruginosa (P. aeruginosa CDC 246, NDM/OXA); greater than 64 µg/mL against Pseudomonas aeruginosa (P. aeruginosa CDC 250, NDM/OXA); 2 µg/mL (≈ 3.42 µM) in the experiment on Pseudomonas aeruginosa (P. aeruginosa CDC 356, KPC); greater than 64 µg/mL against Pseudomonas aeruginosa (P. aeruginosa CDC 439, IMP); greater than 64 µg/mL against Pseudomonas aeruginosa (P. aeruginosa CDC 444, VIM); 2 µg/mL (≈ 3.42 µM) in the experiment on Pseudomonas aeruginosa (P. aeruginosa CDC 457, VIM). Besides, the MIC in the experiment with Pseudomonas aeruginosa (P. aeruginosa CDC 516, KPC/AmpC) turned out to be 2 µg/mL (≈ 3.42 µM); in the experiment on Pseudomonas aeruginosa (P. aeruginosa CDC 518, KPC/AmpC), 16 µg/mL (≈ 27.3 µM).

With “bismuth-1,2-ethanedithiol, 2-mercaptopyridine N-oxide [BisEDT/PYR]”, in the experiment with Haemophilus influenzae, the MIC was less than 0.06 µg/mL.

With `CO/N=C(\C(=O)N[C@@H]1C(=O)N2C(C(=O)O)=C(CSc3nc(=O)c(=O)[nH]n3C)CS[C@H]12)c1csc(N)n1` [Ceftriaxone], the MIC came to 0.015 µg/mL (≈ 0.027 µM) in the experiment on Neisseria gonorrhoeae (ATCC49226, N. gonorrhoeae MMX 683 (ATCC 49226), QC); 1 µg/mL (≈ 1.8 µM) with Neisseria gonorrhoeae (N. gonorrhoeae MMX 6757, CTX NS); 0.06 µg/mL (≈ 0.108 µM) with Neisseria gonorrhoeae (N. gonorrhoeae MMX 6791, CIP^R); 0.06 µg/mL (≈ 0.108 µM) with Neisseria gonorrhoeae (N. gonorrhoeae MMX 6792, CIP^R); 0.03 µg/mL (≈ 0.0541 µM) with Neisseria gonorrhoeae (N. gonorrhoeae MMX 6793, CIP^R).

Regarding `CO/N=C(\C(=O)N[C@@H]1C(=O)N2C(C(=O)O)=C(COC(N)=O)CS[C@H]12)c1ccco1` [cefuroxime, Cefuroxime], in the experiment on Haemophilus influenzae, the MIC50 was 4 µg/mL (≈ 9.43 µM) and the MIC90 was 16 µg/mL (≈ 37.7 µM).

For the molecule `CC1(C)S[C@@H]2[C@H](NC(=O)[C@H](N)c3ccccc3)C(=O)N2[C@H]1C(=O)O` [ampicillin, Ampicillin], in the experiment on Haemophilus influenzae, the MIC50 was 2 µg/mL (≈ 5.72 µM) and the MIC90 was determined as 4 µg/mL (≈ 11.4 µM).

As for `CC[C@H]1OC(=O)[C@H](C)[C@@H](O[C@H]2C[C@@](C)(OC)[C@@H](O)[C@H](C)O2)[C@H](C)[C@@H](O[C@@H]2O[C@H](C)C[C@H](N(C)C)[C@H]2O)[C@](C)(O)C[C@@H](C)CN(C)[C@H](C)[C@@H](O)[C@]1(C)O` [azithromycin, Azithromycin], in the experiment on Haemophilus influenzae, the MIC50 worked out at 2 µg/mL (≈ 2.67 µM) and the MIC90 turned out to be 2 µg/mL (≈ 2.67 µM).
